Laboratory results as given in PMC6323127 (Saudi Pharmaceutical Journal : SPJ, 2018).
Converted amounts (≈) assume the structure as drawn.

Tests used:
[1] = system: CYP1A1/2; details: in vitro; ref Ayrton et al., 1987; cited from earlier work
[2] = molecular target: T1, CYP3A4 (Homo sapiens, UniProt P08684); test: biochemical
[3] = molecular target: T1, CYP3A4; details: for relative potency (AEM IC50)/(other anthraquinone IC50), CYP3A4-mediated erythromycin demethylation: AEM as reference chemical; for inhibitor strength toward CYP3A4 activity (in words): human liver microsomes
[4] = molecular target: T2, CYP1A2 (Homo sapiens, UniProt P05177); test: biochemical
T2 sequence (P05177 1-516): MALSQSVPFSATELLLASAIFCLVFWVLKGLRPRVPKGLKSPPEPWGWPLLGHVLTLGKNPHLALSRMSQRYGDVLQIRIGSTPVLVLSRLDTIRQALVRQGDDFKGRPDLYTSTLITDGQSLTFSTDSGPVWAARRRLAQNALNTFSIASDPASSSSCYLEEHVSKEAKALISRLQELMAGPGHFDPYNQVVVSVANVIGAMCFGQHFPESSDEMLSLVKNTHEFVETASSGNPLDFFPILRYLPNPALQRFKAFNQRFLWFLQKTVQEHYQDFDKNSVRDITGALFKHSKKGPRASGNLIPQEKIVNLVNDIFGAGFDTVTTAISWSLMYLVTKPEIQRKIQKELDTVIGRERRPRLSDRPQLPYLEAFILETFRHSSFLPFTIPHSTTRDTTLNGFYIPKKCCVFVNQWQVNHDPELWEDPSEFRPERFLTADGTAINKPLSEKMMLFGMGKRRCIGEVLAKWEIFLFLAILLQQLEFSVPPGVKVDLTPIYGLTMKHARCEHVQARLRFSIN

[5] = molecular target: T2, CYP1A2; details: for relative potency (AEM IC50)/(other anthraquinone IC50), CYP1A2-mediated caffeine demethylation: AEM as reference chemical; for inhibitor strength toward CYP1A2 activity (in words): human liver microsomes
[6] = molecular target: T2, CYP1A2; test: in vitro; details: microsomes, pH 7.4

T1 sequence (P08684 whole entry): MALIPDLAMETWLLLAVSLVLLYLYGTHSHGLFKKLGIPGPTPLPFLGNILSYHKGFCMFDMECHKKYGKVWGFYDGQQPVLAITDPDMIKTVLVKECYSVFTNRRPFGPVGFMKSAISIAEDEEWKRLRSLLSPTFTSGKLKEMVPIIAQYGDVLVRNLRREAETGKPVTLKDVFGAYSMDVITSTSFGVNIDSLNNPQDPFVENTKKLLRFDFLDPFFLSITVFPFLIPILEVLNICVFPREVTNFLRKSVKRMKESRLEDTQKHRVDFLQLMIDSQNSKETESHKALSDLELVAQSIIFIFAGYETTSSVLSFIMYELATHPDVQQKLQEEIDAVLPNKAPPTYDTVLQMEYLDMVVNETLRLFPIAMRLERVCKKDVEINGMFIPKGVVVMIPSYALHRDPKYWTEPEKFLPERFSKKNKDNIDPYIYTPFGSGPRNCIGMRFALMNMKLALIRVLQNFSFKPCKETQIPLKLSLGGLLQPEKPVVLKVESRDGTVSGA

IC50 [2] [µM]	relative potency (AEM IC50)/(other anthraquinone IC50), CYP3A4-mediated erythromycin demethylation [3] [unitless]	inhibitor strength toward CYP3A4 activity (in words) [3]	IC50 [4] [µM]	relative potency (AEM IC50)/(other anthraquinone IC50), CYP1A2-mediated caffeine demethylation [5] [unitless]	slope of CYP1A2 inhibition-log concentration (or dilution volume) curve ([5]; Fig. 5)	inhibitor strength toward CYP1A2 activity (in words) [5]	IC50 [6] [mg/L]	SMILES	inhibitor strength toward rat liver microsomal CYP1A1/2 activity (in words) [1]
								O=C1c2ccc(O)cc2C(=O)c2ccc(O)cc21 [2,6-dihydroxyanthraquinone]	potent inhibitor
8.29	1.00	moderate inhibitors	1.55	1.00	1.74	potent inhibitors		O=C1c2cccc(O)c2C(=O)c2c(O)cc(CO)cc21 [Aloe-emodin]	
			1.73			potent inhibitors		Cc1cc(O)c2c(c1)C(=O)c1cccc(O)c1C2=O [Chrysophanol]	
15.2	0.55	moderate inhibitors	67	0.02		weak CYP1A2 inhibitor		Cc1cc(O)c2c(c1)C(=O)c1cc(O)cc(O)c1C2=O [Emodin]	
> 220	< 0.04			0.98		potent inhibitors	0.43 (≈ 1.51 µM)	COc1cc(O)c2c(c1)C(=O)c1cc(C)cc(O)c1C2=O [Physcion]	
97.6	0.08	weak inhibitors	2.18	0.68		potent inhibitors		O=C(O)c1cc(O)c2c(c1)C(=O)c1cccc(O)c1C2=O [Rhein]	
		weak inhibitor	> 155			weak inhibitor		O=C(O)c1cc(O)c2c(c1)[C@H]([C@H]1c3cc(C(=O)O)cc(O)c3C(=O)c3c(O[C@@H]4O[C@H](CO)[C@@H](O)[C@H](O)[C@H]4O)cccc31)c1cccc(O[C@@H]3O[C@H](CO)[C@@H](O)[C@H](O)[C@H]3O)c1C2=O [Sennoside A]	
		moderate inhibitor	33.1			moderate inhibitor		O=C(O)c1cc(O)c2c(c1)[C@@H]([C@H]1c3cc(C(=O)O)cc(O)c3C(=O)c3c(O[C@@H]4O[C@H](CO)[C@@H](O)[C@H](O)[C@H]4O)cccc31)c1cccc(O[C@@H]3O[C@H](CO)[C@@H](O)[C@H](O)[C@H]3O)c1C2=O [Sennoside B]	
